Experimental data published in patent US20240148821A1, “PHARMACEUTICAL USE OF CYCLIC PEPTIDE COMPOUND” (CHUGAI SEIYAKU KABUSHIKI KAISHA, priority 2021, published 2024).
pIC50: −log10 of the molar value. Numbered stars: 1 amine (or outer) side, 2 acyl side, 3 side chain; on linkers, the order of the positions; unused ones are H or OH. Bridge positions count the residues as written; N and C are the ends. Square brackets hold non-standard residues; d marks the D form. Peptide text beside a SMILES is read from it. * marks the point of attachment. hPhe(3-Cl-4-CF3) = N[C@@H](CCc1ccc(C(F)(F)F)c(Cl)c1)C(=O)O; X49 = CN([C@@H](Cc1cccc(OC(F)(F)F)c1)C(=O)[*:2])[*:1]; hPhe(4-CF3) = N[C@@H](CCc1ccc(C(F)(F)F)cc1)C(=O)O; NMePhe(4-Me) = CN[C@@H](Cc1ccc(C)cc1)C(=O)O; NMedβ3hAla = C[C@H](CC(=O)[*:2])N(C)[*:1]; Phe(3-I) = N[C@@H](Cc1cccc(I)c1)C(=O)O; NMeCha = CN[C@@H](CC1CCCCC1)C(=O)O; NMeGly(cPr) = CN[C@H](C(=O)O)C1CC1; NMeChg = CN[C@H](C(=O)O)C1CCCCC1; NMeD = CN[C@@H](CC(=O)O)C(=O)O; CH2CONHtBu = CC(C)(C)NC(=O)C*; NMeL = CN[C@@H](CC(C)C)C(=O)O; NMePra = C#CC[C@H](NC)C(=O)O; NMeV = CN[C@H](C(=O)O)C(C)C; d(β3hA) = C[C@@H](N)CC(=O)O; NMeS = CN[C@@H](CO)C(=O)O; NMeA = CN[C@@H](C)C(=O)O; NMeAib = CNC(C)(C)C(=O)O; Piperidide = C1CCN(*)CC1; Ac5c = NC1(C(=O)O)CCCC1; Aze = O=C(O)[C@@H]1CCN1; Aib = CC(C)(N)C(=O)O; Isopentyl = CC(C)CC*; NEtG = CCNCC(=O)O; Sar = CNCC(=O)O

What follows are molecules tested on Human pancreatic cancer cell line AsPC-1 (G12D mutation Kras) (assay: AsPC-1 cell growth inhibition (AsPC-1 CGI)). Details: read-out: AsPC-1 cell growth inhibition, 50% growth inhibitory concentration (IC50 value); 96 hours, CellTiter-Glo, values classified in ranges.
Assay type: cell-based
Protocol: Test compounds were serially dilated with dimethyl sulfoxide, and 200 nL was then dispensed to a U-bottom 96-well plate using Labcyte Echo. […] The cell suspension was dispensed to a. plate containing a test compound at 100 μL per well and incubated at 37° C. in a 5% carbon dioxide gas incubator. 96 hours later, 80 μL of CellTiter-Glo (Promega) was added to each well and fluorescence was measured.

SMILES	pIC50
CC[C@H](C)[C@@H]1NC(=O)[C@H](CC(C)C)N(C)C(=O)C[C@@H](C)N(C)C(=O)[C@H](CC(C)C)NC(=O)C(C)(C)N(C)C(=O)[C@H](CC(C)C)NC(=O)[C@H](CCc2ccc(C(F)(F)F)c(Cl)c2)NC(=O)CN(C)C(=O)[C@H](CC2CCCCC2)N(C)C(=O)[C@@H]2CCN2C(=O)CN(C)C1=O [Compound 57] (cyclo([Aze][NMeCha][Sar][hPhe(3-Cl-4-CF3)]L[NMeAib]L[NMedβ3hAla][NMeL]I[Sar]))	< 6.30
CC[C@H](C)[C@@H]1NC(=O)[C@H](CC(C)C)N(C)C(=O)C[C@@H](C)NC(=O)[C@H](C(C)C)N(C)C(=O)C2(CCCC2)NC(=O)[C@@H]2CCCN2C(=O)[C@H](CCc2ccc(C(F)(F)F)c(Cl)c2)NC(=O)CN(C)C(=O)[C@H](Cc2cccc(OC(F)(F)F)c2)N(C)C(=O)CN(C)C(=O)CN(C)C1=O [Compound 1573] (cyclo([Ac5c][NMeV][d(β3hA)][NMeL]I[Sar][Sar][X49][Sar][hPhe(3-Cl-4-CF3)]P))	< 6.30
C#CC[C@H]1C(=O)N(C)[C@H](C(=O)N2CCCCC2)CC(=O)N(C)[C@@H](CC(C)C)C(=O)N[C@@H]([C@@H](C)CC)C(=O)N(C)CC(=O)N(C)CC(=O)N(C)[C@@H](CC2CCCCC2)C(=O)N(C)CC(=O)N[C@@H](CCc2ccc(C(F)(F)F)c(Cl)c2)C(=O)N2CCC[C@H]2C(=O)NC2(CCCC2)C(=O)N1C [Compound 284] ([NMeL]I[Sar][Sar][NMeCha][Sar][hPhe(3-Cl-4-CF3)]P[Ac5c][NMePra][NMeD]-Piperidide; lactam N-11)	< 6.30
CC[C@H](C)[C@@H]1NC(=O)[C@H](CC(C)C)N(C)C(=O)C[C@@H](C(=O)N2CCCCC2)N(C)C(=O)[C@H](CC(C)C)N(C)C(=O)C(C)(C)NC(=O)[C@H](COCC(=O)NC(C)(C)C)N(C)C(=O)[C@H](CCc2ccc(C(F)(F)F)cc2)NC(=O)CN(C)C(=O)[C@H](COCCC(C)C)N(C)C(=O)CN(C)C(=O)CN(C)C1=O [Compound 1502] ([NMeL]I[Sar][Sar][NMeS](Isopentyl)[Sar][hPhe(4-CF3)][NMeS](CH2CONHtBu)[Aib][NMeL][NMeD]-Piperidide; lactam N-11)	< 6.30
CC[C@H](C)[C@@H]1NC(=O)[C@H](CC(C)C)N(C)C(=O)C[C@@H](C(=O)N2CCCCC2)N(C)C(=O)[C@H](C2CCCCC2)N(C)C(=O)[C@@H](C(C)C)NC(=O)[C@@H]2CCCN2C(=O)[C@H](CCc2ccc(C(F)(F)F)c(Cl)c2)NC(=O)CN(C)C(=O)[C@H](CC2CCCCC2)N(C)C(=O)CN(C)C(=O)CN(C)C1=O [Compound 1138] ([NMeL]I[Sar][Sar][NMeCha][Sar][hPhe(3-Cl-4-CF3)]P[dV][NMeChg][NMeD]-Piperidide; lactam N-11)	< 6.30
CC[C@H](C)[C@@H]1NC(=O)[C@H](C2CC2)N(C)C(=O)C[C@@H](C)NC(=O)[C@H](C(C)C)N(C)C(=O)C2(CCCC2)NC(=O)[C@@H]2CCCN2C(=O)[C@H](CCc2ccc(C(F)(F)F)c(Cl)c2)NC(=O)CN(C)C(=O)[C@H](CC2CCCCC2)N(C)C(=O)[C@@H]2CCN2C(=O)[C@H](C)N(C)C1=O [Compound 565] (cyclo([Ac5c][NMeV][d(β3hA)][NMeGly(cPr)]I[NMeA][Aze][NMeCha][Sar][hPhe(3-Cl-4-CF3)]P))	< 6.30
CC[C@H](C)[C@@H]1NC(=O)[C@H](CC(C)C)N(C)C(=O)C[C@@H](C)NC(=O)[C@H](C(C)C)N(C)C(=O)C2(CCCC2)NC(=O)[C@@H]2CCCN2C(=O)[C@H](CCc2ccc(C(F)(F)F)c(Cl)c2)NC(=O)CN(C)C(=O)[C@H](CC2CCCCC2)N(C)C(=O)CN(C)C(=O)[C@@H]2CCCN2C1=O [Compound 185] (cyclo([Ac5c][NMeV][d(β3hA)][NMeL]IP[Sar][NMeCha][Sar][hPhe(3-Cl-4-CF3)]P))	< 6.30
CC[C@H](C)[C@@H]1NC(=O)[C@H](CC(C)C)N(C)C(=O)C[C@@H](C(=O)N2CCCCC2)N(C)C(=O)[C@H](CC(C)C)NC(=O)C(C)(C)N(C)C(=O)[C@H](Cc2ccc(OC)cc2)NC(=O)[C@H](Cc2cccc(I)c2)NC(=O)CN(C)C(=O)[C@H](Cc2ccc(C)cc2)N(C)C(=O)CN(C)C(=O)CN(C)C1=O [Compound 247] ([NMeL]I[Sar][Sar][NMePhe(4-Me)][Sar][Phe(3-I)]Y(Me)[NMeAib]L[NMeD]-Piperidide; lactam N-11)	< 6.30
CC[C@H](C)[C@@H]1NC(=O)[C@H](CC(C)C)N(C)C(=O)C[C@@H](C)NC(=O)[C@H](C(C)C)N(C)C(=O)C2(CCCC2)NC(=O)[C@@H]2CCCN2C(=O)[C@H](CCc2ccc(C(F)(F)F)c(Cl)c2)NC(=O)CN(C)C(=O)[C@H](CC2CCCCC2)N(C)C(=O)CN(CC)C(=O)CN(C)C1=O [Compound 504] (cyclo([Ac5c][NMeV][d(β3hA)][NMeL]I[Sar][NEtG][NMeCha][Sar][hPhe(3-Cl-4-CF3)]P))	< 6.30
